Measurements from publication PMC11544713, “The Application of Untargeted Metabolomic Approaches for the Search of Common Bioavailable Metabolites in Human Plasma Samples from Lippia citriodora and Olea europaea Extracts” (Journal of Agricultural and Food Chemistry, 2024).

Assays:
[1] = Acute intervention: nutrikinetics of plasma metabolites after ingestion of O. europaea extract (untargeted HPLC-ESI-QTOF-MS)
Summary of the method: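 Fasted healthy volunteers (n = 8 per extract, placebo n = 9, double-blind) took one 500 mg capsule. Plasma was drawn at 0–10 h, protein-precipitated with methanol:ethanol and analysed by C18 HPLC-ESI-QTOF-MS in negative full scan (m/z 50–1700). Tmax was observed; Cmax and AUC are relative, from deconvoluted peak areas.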

[2] = Acute intervention: nutrikinetics of plasma metabolites after ingestion of L. citriodora extract (untargeted HPLC-ESI-QTOF-MS)
Protocol: A total of 25 healthy individuals participated, with an average age of 27 ± 9 years and a mean body mass index (BMI) of 23 ± 3 kg/m^2. None of the participants were taking any medications or nutritional supplements nor did they have any chronic diseases or gastrointestinal issues. The sample size was established based on findings from previous bioavailability research.[14] All participants provided informed consent before participating in the study.
The intervention study was carried out at Miguel Hernández University. Following an overnight fast, the volunteers were categorized into the subsequent groups: a subgroup to evaluate the LC leaf extract (n = 8), another for the OE leaf extract (n = 8), and the placebo subgroup (n = 9). This was a double-blind study, in which sample collection and treatment were carried out uniformly across all three subgroups.
Water was provided ad libitum. Prior to the ingestion of the capsule, a nurse inserted a cannula into the ulnar vein of each volunteer’s nondominant arm, and blood samples were drawn into EDTA-coated tubes at baseline (t = 0). Blood samples were then collected at 0.5, 1, 2, 4, 6, 8, and 10 h after the consumption of the 500 mg capsule. Plasma was separated through centrifugation (10 min at 3000 rpm and 4 °C) and stored at −80 °C until further analysis.
Plasma samples were initially treated using a mixture of methanol and ethanol (50:50; v:v) to remove proteins, following previously reported protocols.[19] During the sample treatment, pooled quality controls (pooled-QC) were prepared by combining equal aliquots from each sample. These QC samples were processed by using the same protocols as the experimental biological samples.
A reversed-phase analytical C18 column (Agilent Zorbax Eclipse Plus, 1.8 μm, 4.6 × 150 mm^2) with a protective cartridge with the same packing was used. MS data were acquired in negative ionization mode, operating in full scan across a mass-to-charge ratio (m/z) range of 50–1700. The analytical method used was adapted from that described by Villegas-Aguilar et al.[19]
Metabolite nutrikinetics were studied using PKSolver, an add-in program for pharmacokinetic data analysis in Microsoft Excel. The time to reach the maximum concentration (observed Tmax) was calculated for each significant metabolite. As an untargeted metabolomic approach was used to detect the circulating metabolites, these were not quantified. Therefore, the maximum concentration (Cmax) and area under the curve (AUC) parameters were calculated in a relative way by using the deconvoluted chromatographic areas. […] Statistical differences were determined by unpaired t tests. All p values less than 0.05 were considered statistically significant.

[3] = 0.5 h after O. europaea extract
[4] = human plasma, 500 mg capsule of O. europaea (OE) extract, oral, mean ± SD
[5] = 0.5 h after L. citriodora extract
[6] = 1 h after L. citriodora extract
[7] = 2 h after L. citriodora extract
[8] = 4 h after L. citriodora extract
[9] = 6 h after L. citriodora extract
[10] = 8 h after L. citriodora extract
[11] = 10 h after L. citriodora extract
[12] = human plasma, 500 mg capsule of L. citriodora (LC) extract, oral, mean ± SD

For homovanillic acid glucuronide, the “Cmax: relative maximum plasma level” value ([1]; human, in vivo, po, 500 mg) was 199 ± 54 relative chromatographic area, the “mean chromatographic area in plasma, T0.5” value ([1]; in vivo) was 13 and the “mean chromatographic area in plasma, T1” value ([1]; in vivo) was 94. For the same substance, the “mean chromatographic area in plasma, T2” value ([1]; in vivo) was 99, the “mean chromatographic area in plasma, T4” value ([1]; in vivo) was 182 and the “mean chromatographic area in plasma, T6” value ([1]; in vivo) was 141. For the same substance, the “mean chromatographic area in plasma, T8” value ([1]; in vivo) was 80, the “mean chromatographic area in plasma, T10” value ([1]; in vivo) was 58 and the “AUC: area under the zero-moment curve” value ([2]; human, in vivo, po, 500 mg) was 1345 ± 1042 relative chromatographic area/h. For the same substance, the “Cmax: relative maximum plasma level” value ([2]; human, in vivo, po, 500 mg) was 360 ± 219 relative chromatographic area, the “mean chromatographic area in plasma, T0.5” value ([2]; in vivo) was 0 and the “mean chromatographic area in plasma, T1” value ([2]; in vivo) was 0. The “mean chromatographic area in plasma, T2” value ([2]; in vivo) was 0, the “mean chromatographic area in plasma, T4” value ([2]; in vivo) was 114 and the “mean chromatographic area in plasma, T6” value ([2]; in vivo) was 232. For the same substance, the “mean chromatographic area in plasma, T8” value ([2]; in vivo) was 219 and the “mean chromatographic area in plasma, T10” value ([2]; in vivo) was 214.

In the case of “homovanillic acid sulfate [homovanillic acid sulfate isomer 2]”, the “Cmax: relative maximum plasma level” value ([1]; human, in vivo, po, 500 mg) was 215 ± 68 relative chromatographic area, the “observed Tmax: time required to reach Cmax” value (shortened to “observed Tmax: time required”) ([1]; human, in vivo, po, 500 mg) was 4 ± 2 h and the “mean chromatographic area in plasma, T0.5” value ([1]; in vivo) was 0. For the same substance, the “mean chromatographic area in plasma, T1” value ([1]; in vivo) was 76, the “mean chromatographic area in plasma, T2” value ([1]; in vivo) was 161 and the “mean chromatographic area in plasma, T4” value ([1]; in vivo) was 191. The “mean chromatographic area in plasma, T6” value ([1]; in vivo) was 182, the “mean chromatographic area in plasma, T8” value ([1]; in vivo) was 154 and the “mean chromatographic area in plasma, T10” value ([1]; in vivo) was 130. For the same substance, the “AUC: area under the zero-moment curve” value ([2]; human, in vivo, po, 500 mg) was 1771 ± 1599 relative chromatographic area/h, the “Cmax: relative maximum plasma level” value ([2]; human, in vivo, po, 500 mg) was 476 ± 363 relative chromatographic area and the “observed Tmax: time required” value ([2]; human, in vivo, po, 500 mg) was 9 ± 2 h. For the same substance, the “mean chromatographic area in plasma, T0.5” value ([2]; in vivo) was 0, the “mean chromatographic area in plasma, T1” value ([2]; in vivo) was 0 and the “mean chromatographic area in plasma, T2” value ([2]; in vivo) was 25. For the same substance, the “mean chromatographic area in plasma, T4” value ([2]; in vivo) was 112, the “mean chromatographic area in plasma, T6” value ([2]; in vivo) was 215 and the “mean chromatographic area in plasma, T8” value ([2]; in vivo) was 336. For the same substance, the “mean chromatographic area in plasma, T10” value ([2]; in vivo) was 408.

In the case of “hydroxytyrosol glucuronide [hydroxytyrosol glucuronide isomer 2]”, the “mean chromatographic area in plasma, T0.5” value [1, 3] was 1726, the “mean chromatographic area in plasma, T1” value ([1]; 1 h after O. europaea extract) was 2553 and the “mean chromatographic area in plasma, T2” value ([1]; 2 h after O. europaea extract) was 1437. For the same substance, the “mean chromatographic area in plasma, T4” value ([1]; 4 h after O. europaea extract) was 507, the “mean chromatographic area in plasma, T6” value ([1]; 6 h after O. europaea extract) was 251 and the “mean chromatographic area in plasma, T8” value ([1]; 8 h after O. europaea extract) was 161. The “mean chromatographic area in plasma, T10” value ([1]; 10 h after O. europaea extract) was 75, the “Cmax: relative maximum plasma level” value [1, 4] was 2627 ± 1167 relative chromatographic area and the “observed Tmax: time required” value [1, 4] was 0.9 ± 0.2 h. The “observed Tmax: time required” value ([1]; human plasma, 500 mg capsule of O. europaea (OE) extract, oral, mean ± SD, listed as hydroxytyrosol glucuronide) was 1 h, the “mean chromatographic area in plasma, T0.5” value [2, 5] was 0 and the “mean chromatographic area in plasma, T1” value [2, 6] was 0. For the same substance, the “mean chromatographic area in plasma, T2” value [2, 7] was 0, the “mean chromatographic area in plasma, T4” value [2, 8] was 48 and the “mean chromatographic area in plasma, T6” value [2, 9] was 81. The “mean chromatographic area in plasma, T8” value [2, 10] was 34, the “mean chromatographic area in plasma, T10” value [2, 11] was 23 and the “AUC: area under the zero-moment curve” value [2, 12] was 350 ± 158 relative chromatographic area/h. The “Cmax: relative maximum plasma level” value [2, 12] was 106 ± 17 relative chromatographic area, the “observed Tmax: time required” value [2, 12] was 8 ± 2 h and the “observed Tmax: time required” value ([2]; human plasma, 500 mg capsule of L. citriodora (LC) extract, oral, mean ± SD, listed as hydroxytyrosol glucuronide) was 7 ± 2 h.

In the case of “hydroxytyrosol sulfate [hydroxytyrosol sulfate isomer 2]”, the “mean chromatographic area in plasma, T0.5” value [1, 3] was 336, the “mean chromatographic area in plasma, T1” value ([1]; 1 h after O. europaea extract) was 646 and the “mean chromatographic area in plasma, T2” value ([1]; 2 h after O. europaea extract) was 605. For the same substance, the “mean chromatographic area in plasma, T4” value ([1]; 4 h after O. europaea extract) was 202, the “mean chromatographic area in plasma, T6” value ([1]; 6 h after O. europaea extract) was 235 and the “mean chromatographic area in plasma, T8” value ([1]; 8 h after O. europaea extract) was 140. The “mean chromatographic area in plasma, T10” value ([1]; 10 h after O. europaea extract) was 202, the “Cmax: relative maximum plasma level” value [1, 4] was 836 ± 359 relative chromatographic area and the “observed Tmax: time required” value [1, 4] was 3 ± 3 h. For the same substance, the “observed Tmax: time required” value ([1]; human plasma, 500 mg capsule of O. europaea (OE) extract, oral, mean ± SD, listed as hydroxytyrosol sulfate) was 1 h, the “mean chromatographic area in plasma, T0.5” value [2, 5] was 0 and the “mean chromatographic area in plasma, T1” value [2, 6] was 0. The “mean chromatographic area in plasma, T2” value [2, 7] was 138, the “mean chromatographic area in plasma, T4” value [2, 8] was 289 and the “mean chromatographic area in plasma, T6” value [2, 9] was 575. For the same substance, the “mean chromatographic area in plasma, T8” value [2, 10] was 591, the “mean chromatographic area in plasma, T10” value [2, 11] was 686 and the “AUC: area under the zero-moment curve” value [2, 12] was 3802 ± 2564 relative chromatographic area/h. The “Cmax: relative maximum plasma level” value [2, 12] was 902 ± 428 relative chromatographic area, the “observed Tmax: time required” value [2, 12] was 8 ± 2 h and the “observed Tmax: time required” value ([2]; human plasma, 500 mg capsule of L. citriodora (LC) extract, oral, mean ± SD, listed as hydroxytyrosol sulfate) was 7 ± 2 h.
